The target of series [1] is T1, GIPR (Homo sapiens, UniProt P48546).
T1 construct: expressed in transfected cells; host or cells: HEK293 (HEK293-GIPR)
T1 sequence (P48546 22-466): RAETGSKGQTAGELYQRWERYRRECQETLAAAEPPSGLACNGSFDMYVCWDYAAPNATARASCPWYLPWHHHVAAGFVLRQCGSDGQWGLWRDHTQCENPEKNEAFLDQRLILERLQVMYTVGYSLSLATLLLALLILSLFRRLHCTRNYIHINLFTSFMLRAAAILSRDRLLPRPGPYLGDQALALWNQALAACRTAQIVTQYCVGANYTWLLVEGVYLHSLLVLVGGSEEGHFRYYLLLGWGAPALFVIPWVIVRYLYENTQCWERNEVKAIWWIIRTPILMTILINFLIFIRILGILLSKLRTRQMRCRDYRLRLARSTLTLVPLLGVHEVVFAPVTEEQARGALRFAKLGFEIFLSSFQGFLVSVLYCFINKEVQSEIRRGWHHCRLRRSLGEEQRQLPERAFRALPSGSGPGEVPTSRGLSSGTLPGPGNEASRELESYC
Nature of the series: In vitro cell activity, cAMP production in HEK293 cells expressing GIPR. It counts as cell-based. In outline:
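HEK293 cells expressing human GIPR, thawed and diluted to 4×10^5 cells/mL, are stimulated with test compound. cAMP is measured by HTRF competition between cAMP-d2 and anti-cAMP cryptate. EC50 comes from a four-parameter nonlinear fit of signal ratio against concentration.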
(Cyclic AMP is a second messenger, typically raised through Gs and lowered through Gi signalling.)

Series [2] is described as follows: Glucose tolerance assessment in normal C57BL/6 mice (Example 5). It counts as in vivo. To be noted: 3 nmol/kg s.c. single dose, 24 h after administration. In outline: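 Normal C57BL/6 mice given a single dose, fasted 12 h starting 12 h post-dose, then challenged with 2 g/kg glucose i.p. Tail-vein glucose measured at baseline and 15, 30, 60, 90 min. AUC0~90min calculated from the glucose–time curve per dose group.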

A short description of series [3]: Pharmacokinetic study in rats, single subcutaneous injection. To be noted: male, Sprague Dawley, in vivo, sc, rat. How it is done: The pharmacokinetic study of each polypeptide compound prepared in Example 1 was conducted using male Sprague Dawley rats. There were 3 male rats in each group. […] The dose was 50 nmol/kg, and a single subcutaneous injection was given (see Table 3 for specific peptide compounds). After administration, plasma was collected on the specified days and time points, and the concentration of each peptide compound in the plasma was detected by LC-MS/MS method. The pharmacokinetic parameters were obtained based on the concentration data, which were used to describe the pharmacokinetic properties of the peptide in rats after subcutaneous injection. Table 3: Summary of pharmacokinetic parameters of some triple-target peptides in rats

Series [4] has as its target T2, GCGR (Homo sapiens, UniProt P47871).
T2 construct: expressed in transfected cells; host or cells: HEK293 (HEK293-GCGR)
Nature of the series: In vitro cell activity, cAMP production in HEK293 cells expressing GCGR. It counts as cell-based. The procedure, abridged: (§1)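 HEK293 transfectants, 4×10^5 cells/mL, 384-well. Detection: cAMP-d2 + anti-cAMP cryptate 1:1, RT 1 h dark or 4 °C o/n. Read 665/620 nm; 4-parameter nonlinear fit → EC50.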

Series [5] addresses T3, GLP-1R (Homo sapiens, UniProt P43220).
T3 construct: expressed in transfected cells; host or cells: HEK293 (HEK293-GLP-1R)
Nature of the series: In vitro cell activity, cAMP production in HEK293 cells expressing GLP-1R. It counts as cell-based. The procedure, abridged:
as §1

A short description of series [6]: Glucose tolerance assessment in normal C57BL/6 mice (Example 4). It counts as in vivo. The procedure, abridged:
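Twelve hours after a single administration, mice were fasted 12 h and then given 2 g/kg glucose i.p. Tail-vein blood glucose was measured at baseline and at 15, 30, 60 and 90 min. AUC0–90min was calculated per dose group at 24 h post-dose.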

[7] abbreviates: 50 nmol/kg single subcutaneous injection, plasma.
Setting [8] is: 50 nmol/kg single subcutaneous injection, plasma, read-out: T1/2 (converted).
[9] abbreviates: 50 nmol/kg single subcutaneous injection, plasma, read-out: Tmax.

Where two headings read alike, the source gives them in different places. Marks after values point to notes of the source that are not given here.

T3 sequence (P43220 24-463, species assumed): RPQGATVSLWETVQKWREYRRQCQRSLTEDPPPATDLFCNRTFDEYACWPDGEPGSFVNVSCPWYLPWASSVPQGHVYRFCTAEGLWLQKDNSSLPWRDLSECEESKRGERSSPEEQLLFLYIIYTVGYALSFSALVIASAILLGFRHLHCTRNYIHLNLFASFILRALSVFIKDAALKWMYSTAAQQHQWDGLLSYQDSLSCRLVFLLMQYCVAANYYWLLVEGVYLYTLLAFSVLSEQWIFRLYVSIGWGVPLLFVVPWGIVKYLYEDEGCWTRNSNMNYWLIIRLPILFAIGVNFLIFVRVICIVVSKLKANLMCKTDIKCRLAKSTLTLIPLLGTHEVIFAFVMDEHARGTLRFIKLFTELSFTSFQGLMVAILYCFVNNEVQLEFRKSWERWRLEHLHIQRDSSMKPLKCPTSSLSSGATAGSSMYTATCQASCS
T2 sequence (P47871 26-477, species assumed): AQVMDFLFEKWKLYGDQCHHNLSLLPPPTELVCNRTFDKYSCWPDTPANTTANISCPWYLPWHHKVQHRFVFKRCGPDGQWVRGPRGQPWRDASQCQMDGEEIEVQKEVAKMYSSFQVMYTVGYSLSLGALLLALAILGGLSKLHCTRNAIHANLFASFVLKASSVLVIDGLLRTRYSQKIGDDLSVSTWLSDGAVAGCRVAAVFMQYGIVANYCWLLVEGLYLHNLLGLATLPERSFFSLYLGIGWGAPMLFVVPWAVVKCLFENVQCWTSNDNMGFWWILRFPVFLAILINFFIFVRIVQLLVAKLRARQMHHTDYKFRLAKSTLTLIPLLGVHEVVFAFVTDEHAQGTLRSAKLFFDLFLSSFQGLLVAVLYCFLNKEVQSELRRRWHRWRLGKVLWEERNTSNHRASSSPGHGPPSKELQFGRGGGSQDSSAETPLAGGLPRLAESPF

As to `CC[C@H](C)[C@H](NC(=O)[C@H](Cc1ccccc1)NC(=O)[C@H](CCC(=O)O)NC(=O)[C@H](CCCNC(=N)N)NC(=O)[C@H](CCC(N)=O)NC(=O)[C@H](CCCNC(=N)N)NC(=O)[C@H](CCCCNC(=O)COCCOCCNC(=O)CC[C@H](NC(=O)CCCCCCCCCCCCCCCCCCC(=O)O)C(=O)O)NC(=O)[C@H](CCC(=O)O)NC(=O)[C@H](CC(=O)O)NC(=O)[C@H](CC(C)C)NC(=O)[C@H](CC(C)C)NC(=O)[C@@H](NC(=O)[C@H](CO)NC(=O)[C@H](Cc1ccc(O)cc1)NC(=O)[C@H](CC(=O)O)NC(=O)[C@H](CO)NC(=O)[C@@H](NC(=O)[C@](C)(Cc1ccccc1F)NC(=O)[C@@H](NC(=O)CNC(=O)[C@H](Cc1c[nH]cn1)NC(=O)C(C)(C)NC(=O)[C@@H](N)Cc1ccc(O)cc1)[C@@H](C)O)[C@@H](C)O)[C@@H](C)CC)C(=O)N[C@@H](CCC(=O)O)C(=O)N[C@@H](Cc1c[nH]c2ccccc12)C(=O)N[C@@H](CC(C)C)C(=O)N[C@@H](CC(C)C)C(=O)N[C@@H](C)C(=O)NCC(=O)NCC(=O)N1CCC[C@H]1C(=O)N[C@@H](CO)C(=O)N[C@@H](CO)C(=O)NCC(=O)N[C@@H](C)C(=O)N1CCC[C@H]1C(=O)N1CCC[C@H]1C(=O)N1CCC[C@H]1C(=O)N[C@@H](CO)C(=O)O` [HEC-PT96], the EC50 in series [1] was 150 pM; in series [4], 192 pM; in series [5], 158 pM. Besides, the “Blood glucose level (mM) 15 min” value in series [2] (15 min after 2 g/kg glucose i.p.) amounted to 13.0 ± 2.9 mM. For the same compound, in series [2] (30 min after 2 g/kg glucose i.p.), the “Blood glucose level (mM) 30 min” value came out at 10.8 ± 3.2 mM. Besides, the “Blood glucose level (mM) 60 min” value in series [2] (60 min after 2 g/kg glucose i.p.) stood at 7.9 ± 1.6 mM. Further, the “Blood glucose level (mM) 90 min” value in series [2] (90 min after 2 g/kg glucose i.p.) worked out at 6.2 ± 1.3 mM. Further, in series [2] (basal before 2 g/kg glucose i.p.), the “Blood glucose level (mM) 0 min” value was found to be 4.2 ± 0.6 mM. For the same compound, the AUC0-90 min in series [2] (blood glucose AUC, 2 g/kg glucose i.p.) was 798.9±146.0^a. The compound also showed an AUC(0-inf) in series [3] (setting [7]) of 40900 ± 1990 ng·h/mL. This compound displayed an AUC(0-t) in series [3] (setting [7]) of 40300 ± 1930 ng·h/mL. Also, the Cmax in series [3] (setting [7]) worked out at 840 ± 41.4 ng/mL. In series [3] (setting [8]), the half-life was 17 ± 0.65 h. Also, in series [3] (setting [9]), the Tmax was found to be 25 ± 2.3 h.
Take `CC[C@H](C)[C@H](NC(=O)[C@H](Cc1ccccc1)NC(=O)[C@H](C)NC(=O)[C@H](CCC(N)=O)NC(=O)[C@H](CCC(N)=O)NC(=O)[C@H](CCCNC(=N)N)NC(=O)[C@H](CCCCNC(=O)COCCOCCNC(=O)CC[C@H](NC(=O)CCCCCCCCCCCCCCCCCCC(=O)O)C(=O)O)NC(=O)[C@H](CCC(=O)O)NC(=O)[C@H](CC(=O)O)NC(=O)[C@H](CC(C)C)NC(=O)[C@H](CC(C)C)NC(=O)[C@@H](NC(=O)[C@H](CO)NC(=O)[C@H](Cc1ccc(O)cc1)NC(=O)[C@H](CC(=O)O)NC(=O)[C@H](CO)NC(=O)[C@@H](NC(=O)[C@](C)(Cc1ccccc1F)NC(=O)[C@@H](NC(=O)CNC(=O)[C@H](Cc1c[nH]cn1)NC(=O)C(C)(C)NC(=O)[C@@H](N)Cc1ccc(O)cc1)[C@@H](C)O)[C@@H](C)O)[C@@H](C)CC)C(=O)N[C@@H](CCC(=O)O)C(=O)N[C@@H](Cc1ccc(O)cc1)C(=O)N[C@@H](CC(C)C)C(=O)N[C@@H](CC(C)C)C(=O)N[C@@H](CCC(=O)O)C(=O)NCC(=O)NCC(=O)N1CCC[C@H]1C(=O)N[C@@H](CO)C(=O)N[C@@H](CO)C(=O)NCC(=O)N[C@@H](C)C(=O)N1CCC[C@H]1C(=O)N1CCC[C@H]1C(=O)N1CCC[C@H]1C(=O)N[C@@H](CO)C(=O)O` [HEC-PT93]: the EC50 in series [1] (HEK293-GIPR cells, cAMP, read-out: GIPR (EC50)) amounted to 159 pM; in series [4] (HEK293-GCGR cells, cAMP, read-out: GCGR (EC50)) it was 354 pM; in series [5] (HEK293-GLP-1R cells, cAMP, read-out: GLP-1R (EC50)), 1170 pM. Besides, the Tmax in series [3] worked out at 25 ± 2.3 h. In addition, the half-life in series [3] (50 nmol/kg) was 19 ± 1.2 h.
For `CC[C@H](C)[C@H](NC(=O)[C@H](Cc1ccccc1)NC(=O)[C@H](C)NC(=O)[C@H](CCC(N)=O)NC(=O)[C@H](CCC(N)=O)NC(=O)[C@H](CCCNC(=N)N)NC(=O)[C@H](CCCCNC(=O)COCCOCCNC(=O)CC[C@H](NC(=O)CCCCCCCCCCCCCCCCC(=O)O)C(=O)O)NC(=O)[C@H](CCC(=O)O)NC(=O)[C@H](CC(=O)O)NC(=O)[C@H](CC(C)C)NC(=O)[C@H](CC(C)C)NC(=O)[C@@H](NC(=O)[C@H](CO)NC(=O)[C@H](Cc1ccc(O)cc1)NC(=O)[C@H](CC(=O)O)NC(=O)[C@H](CO)NC(=O)[C@@H](NC(=O)[C@](C)(Cc1ccccc1F)NC(=O)[C@@H](NC(=O)CNC(=O)[C@H](CCC(N)=O)NC(=O)C(C)(C)NC(=O)[C@@H](N)Cc1ccc(O)cc1)[C@@H](C)O)[C@@H](C)O)[C@@H](C)CC)C(=O)N[C@@H](CCC(=O)O)C(=O)N[C@@H](Cc1ccc(O)cc1)C(=O)N[C@@H](CC(C)C)C(=O)N[C@@H](CC(C)C)C(=O)N[C@@H](CCC(=O)O)C(=O)NCC(=O)NCC(=O)N1CCC[C@H]1C(=O)N[C@@H](CO)C(=O)N[C@@H](CO)C(=O)NCC(=O)N[C@@H](C)C(=O)N1CCC[C@H]1C(=O)N1CCC[C@H]1C(=O)N1CCC[C@H]1C(=O)N[C@@H](CO)C(=O)O` [HEC-PT82], the “Blood glucose level (mM) 15 min” value in series [6] (3 nmol/kg s.c. single dose, 24 h after administration, 15 min after 2 g/kg glucose i.p.) is 12.4 ± 4.3 mM. The “Blood glucose level (mM) 30 min” value in series [6] (3 nmol/kg s.c. single dose, 24 h after administration, 30 min after 2 g/kg glucose i.p.) was 7.6 ± 1.5 mM. Moreover, the “Blood glucose level (mM) 60 min” value in series [6] (3 nmol/kg s.c. single dose, 24 h after administration, 60 min after 2 g/kg glucose i.p.) stood at 6.9 ± 0.8 mM. For the same compound, the “Blood glucose level (mM) 90 min” value in series [6] (3 nmol/kg s.c. single dose, 24 h after administration, 90 min after 2 g/kg glucose i.p.) came to 6.6 ± 0.6 mM. Besides, the “Blood glucose level (mM) 0 min” value in series [6] (3 nmol/kg s.c. single dose, 24 h after administration, basal before 2 g/kg glucose i.p.) stood at 3.8 ± 0.6 mM. The “improvement of glucose tolerance compared with LY3298176” value in series [6] (24 hours after a single administration, 3 nmol/kg) is “more effective in improving glucose tolerance than the positive control LY3298176”. Further, the AUC0-90 min in series [6] (blood glucose AUC, 3 nmol/kg s.c. single dose, 24 h after administration, 2 g/kg glucose i.p.) is given as 691.8±116.4^a. The results for the EC50 in series [1], in series [4] and in series [5] were 83.1 pM, 615 pM and 360 pM, respectively. This compound also showed an AUC(0-inf) in series [3] (setting [7]) of 29400 ± 3050 ng·h/mL. Besides, the AUC(0-t) in series [3] (setting [7]) came out at 29100 ± 3030 ng·h/mL. This compound also had a Cmax in series [3] (setting [7]) of 836 ± 217 ng/mL. In series [3] (setting [8]), the half-life was 17 ± 0.8 h. The Tmax in series [3] (setting [9]) was found to be 8.7 ± 2.3 h.

One may read the EC50 as the concentration needed to bring the measured effect to its halfway point. By AUC(0-inf) is commonly meant the area under the concentration-time curve extrapolated to infinity. A high value points to high exposure. Usually AUC(0-t) stands for the area under the concentration-time curve up to a stated or last time point. Low readings indicate low exposure, high ones high exposure. Usually Cmax stands for the peak of the concentration-time curve. The Tmax is the time at which the peak concentration occurs.

The values above are taken from patent publication EP4596574A1, “GLP-1/GCG/GIP TRIPLE-RECEPTOR AGONIST AND USE THEREOF” (Sunshine Lake Pharma Co., Ltd., priority 2022, dated 2024).
